Read-outs that look alike come from different tables or passages of the source.
Tests used:
[1] = tested on: HGPS fibroblasts (AG11498, P01, HGADFN136, HGADFN004); assay: Nuclear morphology of HGPS fibroblasts maintained in FTI; format: cell-based, human
Description: (§1) FIG. 10 illustrates the effect of long-term exposure to low doses of FTI (PD169451) on the nuclear morphology of normal (GM08398 and HGMDFN090) and HGPS (AG11498, P01, HGADFN136 and HGADFN004) fibroblasts. Fibroblasts were maintained in medium with 0 nM, 10 nM or 100 nM FTI. Cultures were plated in chambered microscope slides 24 hours prior to fixing with 4% paraformaldehyde for nuclear morphology studies. **—Too few cells to count. […] All cell lines were passage 6 at the beginning of the analysis except for HGADFN004, which was at passage 12.
(§2) Normal and HGPS fibroblasts were maintained in T75 tissue culture flasks with 0 nM, 10 nM, and 100 nM concentrations of the FTI, PD169451, added to the growth medium. The medium was changed every 2 days and the cells were split when they were approximately 80% confluent. Three days prior to each time point, a flask was trypsinized and cells were placed in chambered microscope slides (BD Biosciences) and maintained in the appropriate FTI concentration. Seventy-two hours later the cells were washed two times with PBS (pH 7.2) and fixed for 20 minutes at 4° C. with 4% paraformaldehyde in PBS containing 62.5 µg/ml LPC palmitoyl and 1 U/ml rhodamine phalloidin (Molecular Probes) to stain the cytoskeleton. Following three washes with PBS, […] of ProLong Gold mounting medium with DAPI (Molecular Probes) was applied and the cells were overlaid with a coverslip.

[2] = tested on: normal fibroblasts (GM08398 and HGMDFN090); assay: Nuclear morphology of normal fibroblasts maintained in FTI; format: cell-based, human
Description: as §1, §2

[3] = tested on: endogenous lamin A; assay: Lamin A processing (pre-lamin A) by immunoblot after FTI exposure; format: cell-based, human; conditions: 100 nM FTI, 72 hours; normal and HGPS fibroblasts
Description: (§3) FIG. 7 illustrates the effect of a 72 hour exposure to 100 nM FTI (PD169451) on GFP-lamin A (A) and GFP-progerin (B) localization, protein processing (C) and nuclear morphology (D and E). Confocal microscopy was used to examine the effects of FTIs on transiently-expressed GFP-lamin A (A) and GFP-progerin (B) in normal fibroblasts. Three focal planes are shown—top, middle and bottom (from left to right). Exposure to 100 nM FTI for 72 hours caused about half of the endogenous lamin A to be unprocessed pre-lamin A in normal and HGPS fibroblasts (C). Exposure to the FTI increased the percent of mock transfected cells and GFP-lamin A expressing cells with abnormal nuclear morphology (D). However, the percentage of cells expressing GFP-progerin with an abnormal nuclear morphology decreased by 33% when exposed to the FTI for 72 hours.
Immunoblotting: Proteins were transferred to Immobilon-P membrane (Millipore) using a Trans-Blot semi-dry electrophoretic transfer cell (BioRad) blocked with 5% dry milk in TBST and probed with lamin A/C specific antibodies according to standard protocols.

[4] = tested on: normal fibroblasts (GM08398) transiently expressing GFP-lamin A or GFP-progerin; assay: Nuclear morphology and GFP localization in normal fibroblasts transiently expressing GFP-lamin A or GFP-progerin, exposed to FTI; format: cell-based, human; conditions: 100 nM FTI, 72 hours
Description: as §3
GFP localization: Normal and HGPS fibroblasts were plated on coverslips in six well plates or in chambered microscope slides (BD Biosciences) 24 hours prior to transfection. Fibroblasts were transiently transfected with the GFP-lamin A or GFP-progerin expression constructs using FUGENE®6 transfection reagent (Roche). Seventy-two hours later the cells were washed two times with PBS (pH 7.2) and fixed for 20 minutes at 4° C. with 4% paraformaldehyde in PBS containing 62.5 µg/ml LPC palmitoyl and 1 U/ml rhodamine phalloidin (Molecular Probes) to stain the cytoskeleton. Following three washes with PBS, Prolong Gold mounting medium with DAPI (Molecular Probes) was applied to the coverslips which were then inverted and placed on microscope slides.
Normal and HGPS fibroblasts were plated on coverslips in 6 well plates 24 hours prior to transfection. Normal fibroblasts were transiently transfected with the GFP-lamin A or GFP-progerin expression constructs using FUGENE®6 transfection reagent (Roche). The following day, the medium was replaced with growth medium containing 0 nM, 100 nM, 500 nM or […] of the FTI, PD169451. […]

[5] = tested on: normal fibroblasts (GM08398) stably expressing GFP-lamin A, GFP-progerin and GFP-LA(L647R); assay: Nuclear morphology and GFP localization in normal fibroblasts stably expressing GFP fusions (retroviral TET-OFF), exposed to FTI; format: cell-based, human
Description: FIG. 11 illustrates the effect of the FT1, PD169451, on the nuclear morphology of normal fibroblasts (GM08398) stably expressing GFP-lamin A, GFP-progerin and GFP-LA(L647R) using a retroviral TET-OFF® expression vector system (Clontech). Fibroblasts were maintained in medium with 0 nM, 10 nM or 100 nM FTI for 6 days.
Cultures were plated in chambered microscope slides 24 hours prior to fixing with 4% paraformaldehyde for nuclear morphology studies. Cells were maintained in three predetermined tetracycline concentrations, 0 mM for full expression (A), 0.05 mM for intermediate expression levels (B), and 8 mM for very low expression levels (C). […] Analysis of nuclear morphology was performed in a double blinded fashion with at least 70 cells analyzed per sample.
FIG. 12 illustrates the effect of FTI on the distribution of GFP signal in normal fibroblasts (GM08398) expressing GFP-lamin A (panels A, B and C), GFP-progerin (D, E and F) and GFP-LA(L647R) (G, H, and I) using a retroviral TET-OFF® expression vector system with various FTI concentrations. Fibroblasts were maintained in medium with 0 nM (A, D, G), 10 nM (B, E, and H) or 100 nM (C, F and I) FTI for six days. Expression levels of the GFP fusions were maintained at levels similar to endogenous levels of lamin A by the addition of 0.05 mg/ml tetracycline. Signals were visualized with a Zeiss AXIOPHOT™ Fluorescent microscope and imaging was performed using the Olympus DP70 Digital Camera System.
Retroviral Constructs: The pRevTetOff vector and pRevTRE constructs were transfected using FUGENE®6 transfection reagent into the Amphotropic Phoenix retroviral packaging line (Peter Nolan, Stanford University). Forty-eight hours after transfection the media containing retrovirus was filtered through a 0.22 micron filter and used immediately or stored at −70° C. Retroviral infection was performed by exposing target cells to a 1:1 mix of retroviral supernatant and growth medium with 4 μg/ml polybrene.
By way of example, GFP-lamin A and GFP-progerin were expressed from TET-OFF® retroviral expression vector constructs that allowed for sustained expression and modulation of expression to address the possibility of results due to over-expression of the fusion proteins when the proteins were transiently expressed. In addition, a cleavage minus mutant, GFP-LA(L647R), was included to examine the effect of retaining the farnesyl group without the 50 amino acid deletion found in progerin.

[6] = cited from earlier work
[7] = 10 nM FTI, 6 days, intermediate expression (0.05 mg/ml tetracycline), p<0.0001

CC(C)(CNC(=O)CN(Cc1ccc(OCc2ccccc2)cc1)C(=O)[C@H](Cc1cnc[nH]1)NC(=O)OCc1ccccc1)c1ccccc1 [PD169451]
percentage of abnormal nuclei in HGPS fibroblasts and in normal fibroblasts expressing GFP-progerin ([1]; 10 nM FTI): significantly lowered | drop in abnormal morphology ([1]; 10 nM FTI, 14 days, HGPS cell line HGADFN004): 12% | decrease in abnormal nuclei ([1]; 10 nM FTI, 14 days, three HGPS lines each): ≥ 70% | reduction in the percent of cells with abnormal nuclei ([1]; 10 nM FTI, two days, four HGPS cell lines): ~40% | growth of HGADFN004 line ([1]; 100 nM FTI, 14 day time point): failed to grow | drop in the percent of cells with abnormal nuclear morphology ([1]; AG11498 line, various FTI concentrations, three days): ≤ 40% | FTI dose that caused cells to stop dividing after a week to 10 days ([1]; long-term exposure, normal and HGPS fibroblasts): greater than 200 nM | nuclear morphology phenotype ([1]; normal fibroblasts expressing progerin and HGPS fibroblasts (summary of Example 3)): significant improvement | abnormal nuclear morphology in normal fibroblasts, dose dependence ([2]; 0, 10, 100 nM FTI): dose dependent manner | nuclear morphology of normal cells ([2]; 10 nM FTI): did not substantially alter | abnormal nuclear morphology in normal fibroblasts ([2]; high doses of the FTI, greater than 200 nM): increase in abnormal nuclear morphology | endogenous lamin A present as unprocessed pre-lamin A [3]: about half | effect on the localization of transiently expressed GFP-lamin A and GFP-progerin [4]: significant effect | percent of mock transfected cells and GFP-lamin A expressing cells with abnormal nuclear morphology [4]: increased | decrease in the percentage of cells expressing GFP-progerin with an abnormal nuclear morphology ([4]; normal fibroblasts transiently expressing GFP-progerin): 33% | reduction of percent abnormal nuclei, GFP-LA(L647R) [5, 7]: 67% | reduction of percent abnormal nuclei, GFP-progerin [5, 7]: 71% | reorganization of GFP signal for any of the fusion proteins ([5]; 10 nM FTI, stable expression): did not lead to this drastic reorganization | effect on abnormal nuclear morphology at very high expression levels of GFP-progerin or GFP-LA(L647R) ([5]; 10 nM FTI, no tetracycline): could not overcome | localization of GFP-lamin A and GFP-progerin ([5]; 100 nM FTI, stable expression): localize to intranuclear filaments | localization of GFP-tagged L647R mutant ([5]; 100 nM FTI, stable expression): redistributed to intranuclear filaments | improvement in abnormal nuclear morphology at 100 nM in comparison to 10 nM ([5]; 100 nM FTI, intermediate expression of GFP-progerin and GFP-LA(L647R)): less profound

Cn1cncc1[C@@](N)(c1ccc(Cl)cc1)c1ccc2c(c1)c(-c1cccc(Cl)c1)cc(=O)n2C [tipifarnib]
tolerability ([6]; Phase III trials, including trials involving children): well tolerated | tolerability ([6]; clinical trials): well tolerated
